For test [1], the target named is Human CB1R (Cannabinoid receptor 1) (Homo sapiens (Human), UniProt P21554). Briefly: CB-1 in vitro cAMP assay (HTRF), inverse agonism. It counts as cell-based. Particulars: mean where tested more than once. An excerpt: (§1) CB1 and CB2 receptors are Gi-coupled GPCR. Activation of CB1 and CB2 receptors results in a decrease in cAMP production. An inverse agonist of the CB1 or CB2 receptor results in the opposite effect, an increase of cAMP production. The principle of this assay is based on HTRF® technology (Homogeneous Time-Resolved Fluorescence). The method is a competitive immunoassay between native cAMP produced by cells and the cAMP labeled with the fluorophore d2. The tracer binding is quantified by a Mab anti-cAMP labeled with Eu3+TBP-NHS Cryptate (supplied as part of the assay kit). The specific signal (i.e. energy transfer) is inversely proportional to the concentration of cAMP in the standard or sample.
(§2) Human CB1R (Cannabinoid receptor 1) was stably transfected in HEK-293 cells (DiscoveRx, cat: 93-0200C1). Human CB2R (Cannabinoid receptor 2) was stably transfected in HEK-293 cells (DiscoveRx, cat: 93-0201C1). Cell cultures were maintained in media: DMEM (Invitrogen Cat#12430-054) supplemented with 10% HI FBS (Invitrogen Cat#16140-071), 1% L-glutamine (Invitrogen Cat#25030-081), 0.2 mg/ml Hygromycin B (Invitrogen Cat#10687-010), 600 μg/mL G418 (Invitrogen Cat#10131-035), and 1X Penn/Strep (Invitrogen 15140-122). After cell expansion, aliquots were cryo-stored in media containing 5% DMSO (Pierce Cat#20684).
(§3) One day prior to experiments media was warmed to 37° C. and the cryo-stored cells were thawed in a 37° C. water bath. The cells were then added to media (10× volume) and the mixture was centrifuged at 1000 RPM for 5 min. The supernate was removed and the cells were re-suspended in media. A sample of the cell suspension was evaluated on a Cedex XS automated cell counter (Innovatis Systems) to determine viable cells/ml. Additional media was added to the cells to achieve a final cell density of 4E5 cells/mL. The cells were then plated into 384 well PDL white solid bottom plates (Greiner, Cat#781945) at 20 μL per well using a Multidrop (Thermo Scientific). Cells were removed from Row P (location of cAMP standards). Two columns of cells were plated into a clear bottom 384 well PDL coated plate (Greiner, Cat#781944) to view confluence the day of the assay. The cell plates were lidded and stored for 15 minutes in a hood, then transferred to an incubator (37° C., 5% CO2, 95% humidity) overnight.
(§4) DMSO was added to all wells of 384 well V bottom polystyrene plate (Greiner, Cat#781280) except to columns 1 and 13, rows 0 and P and wells M13-M23 and N13-N23. Test compounds (60 μL, 10 mM) were added to Column 1 and 13 (A1 through N1 and A13 through L13). Test compounds were serially diluted 1/3 by transferring and mixing 20 μl sample with 40 μL DMSO.
(§5) DMSO (40 μL) was added to wells of 384 well V bottom polystyrene plate: O2 through O11, M14 through M23, N14 through N23, and O14 through O23. AM630 (also known as [6-iodo-2-methyl-1-[2-(4-morpholinyl)ethyl]-1H-indol-3-yl](4-methoxyphenyl)-methanone, Cayman Chemical, Cat#10006974) (60 μL, 10 mM) was added to 01; and 1-(2,4-dichlorophenyl)-7-[(4-fluorophenyl)methylene]-4,5,6,7-tetrahydro-N-1-piperidinyl-1H-indazole-3-carboxamide (60 μL, 10 mM) was added to N13. The control was serially diluted 1/3 by transferring and mixing 20 μl sample with 40 μL DMSO. This process resulted 11 doses per control, 10 mM to […].
(§6) Cells plated the day prior to the assay in clear bottom plates were viewed on an inverse microscope to ensure confluency in the range of 60-75%. […]

Test [2] has as its target Human CB2R (Cannabinoid receptor 2) (Homo sapiens (Human), UniProt P34972). Briefly: CB-2 in vitro cAMP assay (HTRF), inverse agonism. It counts as cell-based. Particulars: mean where tested more than once.
Source text: as §1, §2, §3, §4, §5, §6

The structures appear in SMILES notation. Some results are limits rather than exact numbers.

Sequence of Human CB2R (Cannabinoid receptor 2) (P34972 whole entry): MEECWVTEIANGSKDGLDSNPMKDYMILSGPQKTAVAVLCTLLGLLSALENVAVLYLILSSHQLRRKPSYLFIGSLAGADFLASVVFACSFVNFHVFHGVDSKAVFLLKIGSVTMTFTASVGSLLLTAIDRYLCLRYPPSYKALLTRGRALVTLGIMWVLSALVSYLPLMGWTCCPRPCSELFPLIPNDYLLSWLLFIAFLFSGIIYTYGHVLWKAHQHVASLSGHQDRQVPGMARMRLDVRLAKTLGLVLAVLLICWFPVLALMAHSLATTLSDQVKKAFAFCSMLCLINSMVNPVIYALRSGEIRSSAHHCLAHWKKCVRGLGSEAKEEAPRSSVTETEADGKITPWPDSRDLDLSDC
Sequence of Human CB1R (Cannabinoid receptor 1) (P21554 whole entry): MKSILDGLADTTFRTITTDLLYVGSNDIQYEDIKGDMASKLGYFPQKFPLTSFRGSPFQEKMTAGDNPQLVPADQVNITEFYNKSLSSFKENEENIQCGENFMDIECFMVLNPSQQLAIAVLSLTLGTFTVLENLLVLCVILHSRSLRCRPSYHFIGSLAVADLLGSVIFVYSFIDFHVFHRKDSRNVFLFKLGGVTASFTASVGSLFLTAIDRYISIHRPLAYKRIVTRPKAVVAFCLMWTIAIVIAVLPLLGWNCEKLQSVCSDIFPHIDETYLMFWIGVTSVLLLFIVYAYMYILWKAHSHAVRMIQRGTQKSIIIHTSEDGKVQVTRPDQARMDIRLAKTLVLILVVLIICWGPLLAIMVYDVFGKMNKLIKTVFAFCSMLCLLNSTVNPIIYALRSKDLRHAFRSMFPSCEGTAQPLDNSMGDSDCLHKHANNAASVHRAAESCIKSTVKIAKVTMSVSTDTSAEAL

Turning to `O=c1cc(/C=C/c2ccc(Cl)cc2)c2cc(C(c3ccccc3)c3ccc(Cl)cc3)ccc2[nH]1` (stereo not shown) [Compound 34, 4-[(E)-2-(4-Chlorophenyl)ethenyl]-6-[(4-chlorophenyl)(phenyl)methyl]quinolin-2(1H)-one], the values for the EC50 in test [1] and in test [2] were 1460 nM and > 10000 nM, respectively.
With `O=c1cc(N2CCN(S(=O)(=O)C(F)(F)F)CC2)c2cc(C(c3ccc(Cl)cc3)c3nccs3)ccc2[nH]1` (stereo not shown) [Compound 35, 6-[(4-Chlorophenyl)(1,3-thiazol-2-yl)methyl]-4-{4-[(trifluoromethyl)sulfonyl]-piperazin-1-yl}quinolin-2(1H)-one], the EC50 was 322 nM in test [1] and > 10000 nM in test [2].
For `CCOC(=O)N1CCC(Nc2cc(=O)[nH]c3ccc(C(c4ccc(Cl)cc4)c4nccs4)cc23)CC1` (stereo not shown) [Compound 37, Ethyl 4-({6-[(4-chlorophenyl)(1,3-thiazol-2-yl)methyl]-2-oxo-1,2-dihydroquinolin-4-yl}amino)piperidine-1-carboxylate], the values for the 50% effective concentration (EC50) in test [1] and in test [2] were 19 nM and > 10000 nM, respectively.
Taken in the same sequence, the figures for `O=c1cc(/C=C/c2cccc(F)c2)c2cc(C(c3ccc(Cl)cc3)c3nccs3)ccc2[nH]1` (stereo not shown) [Compound 38, (E)-6-((4-chlorophenyl)(thiazol-2-yl)methyl)-4-(3-fluorostyryl)quinolin-2(1H)-one] were 497 nM and > 10000 nM.
In the case of `O=c1cc(NC2CCNCC2)c2cc(C(c3ccc(Cl)cc3)c3nccs3)ccc2[nH]1` (stereo not shown) [Compound 39, 6-((4-chlorophenyl)(thiazol-2-yl)methyl)-4-(piperidin-4-ylamino)quinolin-2(1H)-one], the concentration giving a half-maximal response (EC50) in test [1] was 604 nM; in test [2], > 10000 nM.
On the same counts, the results for `CC(C)S(=O)(=O)N1CCC(Nc2cc(=O)[nH]c3ccc(C(c4ccc(Cl)cc4)c4nccs4)cc23)CC1` (stereo not shown) [Compound 40, 6-[(4-Chlorophenyl)(1,3-thiazol-2-yl)methyl]-4-({1-[(1-methylethyl)sulfonyl]piperidin-4-yl}amino)quinolin-2(1H)-one] are 204 nM and > 10000 nM.
Taken in the same sequence, the figures for `CC(C)(C)OC(=O)N1CC[C@H](Nc2cc(=O)[nH]c3ccc(C(c4ccc(Cl)cc4)c4nccs4)cc23)C1` (stereo partly drawn) [Compound 45, tert-Butyl (3S)-3-({6-[(4-chlorophenyl)(1,3-thiazol-2-yl)methyl]-2-oxo-1,2-dihydroquinolin-4-yl}amino)pyrrolidine-1-carboxylate] were 1170 nM and > 10000 nM.
As for `CC(C)(C)OC(=O)N1CC[C@@H](Nc2cc(=O)[nH]c3ccc(C(c4ccc(Cl)cc4)c4nccs4)cc23)C1` (stereo partly drawn) [Compound 46, tert-Butyl (3R)-3-({6-[(4-chlorophenyl)(1,3-thiazol-2-yl)methyl]-2-oxo-1,2-dihydroquinolin-4-yl}amino)pyrrolidine-1-carboxylate], the half-maximal effective concentration (EC50) in test [1] is 657 nM; in test [2] it was > 10000 nM.
Regarding `O=c1cc(N[C@@H]2CCN(S(=O)(=O)C(F)(F)F)C2)c2cc(C(c3ccc(Cl)cc3)c3nccs3)ccc2[nH]1` (stereo partly drawn) [Compound 47, 6-[(4-Chlorophenyl)(1,3-thiazol-2-yl)methyl]-4-({(3R)-1-[(trifluoromethyl)sulfonyl]-pyrrolidin-3-yl}amino)quinolin-2(1H)-one], the values for the 50% effective concentration (EC50) in test [1] and in test [2] were 75 nM and 4610 nM, respectively.
`O=c1cc(N[C@H]2CCN(S(=O)(=O)C(F)(F)F)C2)c2cc(C(c3ccc(Cl)cc3)c3nccs3)ccc2[nH]1` (stereo partly drawn) [Compound 48, 6-[(4-Chlorophenyl)(1,3-thiazol-2-yl)methyl]-4-({(3S)-1-[(trifluoromethyl)sulfonyl]-pyrrolidin-3-yl}amino)quinolin-2(1H)-one]: the results for the concentration giving a half-maximal response (EC50) in test [1] and in test [2] were 230 nM and > 3300 nM, respectively.
With `O=c1cc(NC2CCN(S(=O)(=O)C(F)(F)F)CC2)c2cc(C(O)(c3ccc(F)cc3)c3ccc(Cl)cc3)ccc2[nH]1` (stereo not shown) [Compound 50, 6-[(4-Chlorophenyl)(4-fluorophenyl)hydroxymethyl]-4-({1-[(trifluoromethyl)sulfonyl]-piperidin-4-yl}amino)quinolin-2(1H)-one], the EC50 amounted to 530 nM in test [1] and 9700 nM in test [2].
With `COc1ccc(C(O)(c2ccc(Cl)cc2)c2ccc3[nH]c(=O)cc(NC4CCN(S(=O)(=O)C(F)(F)F)CC4)c3c2)cc1` (stereo not shown) [Compound 51, 6-[(4-chlorophenyl)(hydroxy)(4-methoxyphenyl)methyl]-4-[[1-(trifluoromethane)sulfonylpiperidin-4-yl]amino]-1,2-dihydroquinolin-2-one], the results for the EC50 in test [1] and in test [2] were 29 nM and 8280 nM, respectively.
Regarding `O=c1cc(NC2CCN(S(=O)(=O)C(F)(F)F)CC2)c2cc(C(c3ccc(F)cc3)c3ccc(Cl)cc3)ccc2[nH]1` (stereo not shown) [Compound 52, 6-[(4-Chlorophenyl)(4-fluorophenyl)methyl]-4-({1-[(trifluoromethyl)sulfonyl]-piperidin-4-yl}amino)quinolin-2(1H)-one], the 50% effective concentration (EC50) in test [1] turned out to be 23 nM; in test [2], 7100 nM.
On the same counts, the results for `O=c1cc(NC2CCN(S(=O)(=O)C(F)(F)F)CC2)c2cc(C(c3ccc(Cl)cc3)c3ccc4c(c3)OCO4)ccc2[nH]1` (stereo not shown) [Compound 55, 6[1,3-Benzodioxo1-5-yl(4-chlorophenyl)methyl]-4-({1-[(trifluoromethyl)sulfonyl]-piperidin-4-yl}amino)quinolin-2(1H)-one] are 10 nM and 840 nM.
Turning to `O=c1cc(NC2CCN(c3ncccn3)CC2)c2cc(C(c3ccc(Cl)cc3)c3ccc(Cl)cc3)ccc2[nH]1` [Compound 57, 6-(bis(4-chlorophenyl)methyl)-4-((1-(pyrimidin-2-yl)piperidin-4-yl)amino)quinolin-2(1H)-one], the EC50 came out at 11 nM in test [1] and 4100 nM in test [2].
Taken in the same sequence, the figures for `O=c1cc(NCc2ccc(C(F)(F)F)cc2)c2cc(C(c3ccc(Cl)cc3)c3ccc(Cl)cc3)ccc2[nH]1` [Compound 58, 6-[Bis(4-chlorophenyl)methyl]-4-{[4-(trifluoromethyl)benzyl]amino}-quinolin-2(1H)-one] were 45 nM and > 10000 nM.
`O=c1cc(NC2CCN(c3ccccc3)CC2)c2cc(C(c3ccc(Cl)cc3)c3ccc(Cl)cc3)ccc2[nH]1` [Compound 60, 6-[bis(4-chlorophenyl)methyl]-4-[(1-phenylpiperidin-4-yl)amino]quinolin-2-ol]: the EC50 is 6 nM in test [1] and > 10000 nM in test [2].
On the same counts, the results for `O=c1cc(NC2CCN(S(=O)(=O)C(F)(F)F)CC2)c2cc(C(c3ccc(Cl)cc3)c3ccc(C(F)(F)F)cc3)ccc2[nH]1` (stereo not shown) [Compound 62, 6-{(4-Chlorophenyl)[4-(trifluoromethyl)phenyl]methyl}-4-({1-[(trifluoromethyl)sulfonyl]-piperidin-4-yl}amino)quinolin-2(1H)-one] are 29 nM and 3230 nM.
Take `CS(=O)(=O)N1CCC(Nc2cc(=O)[nH]c3ccc(C(c4ccc(Cl)cc4)c4ccc(Cl)cc4)cc23)CC1` [Compound 63, 6-[Bis(4-chlorophenyl)methyl]-4-{[1-(methylsulfonyl)piperidin-4-yl]amino}quinolin-2(1H)-one]: the EC50 was determined as 94 nM in test [1] and 2660 nM in test [2].
As to `O=C(c1ccccc1)N1CCC(Nc2cc(=O)[nH]c3ccc(C(c4ccc(Cl)cc4)c4ccc(Cl)cc4)cc23)CC1` [Compound 64, 4-((1-benzoylpiperidin-4-yl)amino)-6-(bis(4-chlorophenyl)methyl)quinolin-2(1H)-one], the EC50 was found to be 28 nM in test [1] and 4500 nM in test [2].

Usually EC50 stands for the concentration that produces a half-maximal response. A high value points to lower potency in that assay.

The record behind these values is patent US9266835B2, “Quinoline derivatives useful as CB-1 inverse agonists” (JANSSEN PHARMACEUTICA NV, priority 2014, dated 2016).
